Source: publication PMC12892976, “Alkylation-based optimization of antifungal FPPS inhibitors yields a potent, broad-spectrum lipophilic zoledronate derivative” (mBio, 2025)
Read-outs that look alike come from different tables or passages of the source.

How the values were obtained:
Saccharomyces cerevisiae [1] = experiment: MIC/MFC broth microdilution (CLSI); assay type: cell-based; conditions: Saccharomyces cerevisiae S288c
Procedure: (§1) Antifungal susceptibility was determined by broth microdilution according to the CLSI guidelines described in M27-Ed4 ([16]). […] MFC was determined by back-plating drug-treated cultures from MIC broths onto SDA plates. The MFC was defined as the lowest concentration from which no colonies could be cultured.

Candida albicans [2] = experiment: MIC/MFC broth microdilution (CLSI); assay type: cell-based; conditions: Candida albicans SC5314
Procedure: as §1

Aspergillus flavus [3] = experiment: checkerboard drug interaction (FICI, MICc);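 also: simplified diagonal checkerboard screen pairing azole antifungals with FPPS inhibitors, FICI calculated under the Loewe additivity model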; assay type: cell-based; set-up: INH MICc (KET:INH) / INH MICc (FLC:INH): unit not given beside the values; conditions: A. flavus
Trichophyton rubrum [4] = experiment: checkerboard drug interaction (FICI, MICc);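 also: simplified diagonal checkerboard screen pairing azole antifungals with FPPS inhibitors, FICI calculated under the Loewe additivity model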; assay type: cell-based; conditions: T. rubrum
Procedure: (§2) Drug interactions between antifungals and FPPS inhibitors were investigated using a simplified checkerboard diagonal screening method ([45]). […] FICIs were determined according to the Loewe additivity model ([17]).

Trichophyton rubrum [5] = experiment: MIC/MFC broth microdilution (CLSI); conditions: Trichophyton rubrum
Procedure: as §1

[6] = test system: Cryptococcus deuterogattii; experiment: checkerboard drug interaction (FICI, MICc);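 as to all read-outs here: simplified diagonal checkerboard screen pairing antifungal drugs with FPPS inhibitors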; assay type: cell-based; conditions: C. deuterogattii; for INH FD (MIC-MICc fold decrease): fold decrease of inhibitor MIC
Procedure: as §2

Candida glabrata [7] = experiment: checkerboard drug interaction (FICI, MICc);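 as to all read-outs here: simplified diagonal checkerboard screen pairing antifungals with FPPS inhibitors, FICI calculated under the Loewe additivity model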; assay type: cell-based; conditions: C. glabrata; for INH FD (MIC-MICc fold decrease): fold decrease of inhibitor MIC
Procedure: as §2

Aspergillus fumigatus [8] = experiment: MIC/MFC broth microdilution (CLSI); conditions: ATCC204305
Procedure: as §1

eight fungal species [9] = experiment: MIC/MFC summary across the eight fungal species of Table 1; assay type: cell-based
Procedure: The antifungal activity of these compounds was evaluated according to CLSI guidelines ([16]).

Aspergillus flavus [10] = experiment: MIC/MFC broth microdilution (CLSI); conditions: ATCC204304
Procedure: as §1

eight fungal species [11] = experiment: checkerboard interaction with azoles, summary across the eight species; assay type: cell-based; conditions: geometric mean MIC in combination with azoles
From the text: Synergy between lipophilic FPPS inhibitors and azole antifungals was investigated by determining the fractional inhibitory concentration index (FICI) (Fig. 2; Table S1 Fig. S1) ([17]). […]. Derivatives PLA9 and 11, and PDA9, 11, and 12 antagonized azoles in C. albicans, C. neoformans, and C. deuterogattii, yet were largely synergistic in C. glabrata and S. cerevisiae. […].

Cryptococcus neoformans [12] = experiment: MIC/MFC broth microdilution (CLSI); conditions: Cryptococcus neoformans;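 also: susceptibility testing followed the CLSI M27-Ed4 broth microdilution document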
Procedure: as §1

Candida albicans [13] = experiment: checkerboard drug interaction (FICI, MICc);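 as to all read-outs here: antifungal plus FPPS inhibitor combinations on Candida albicans tested by a simplified diagonal checkerboard screen, with FICI calculated under the Loewe additivity model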; assay type: cell-based; conditions: C. albicans; for INH FD (MIC-MICc fold decrease): fold decrease of inhibitor MIC
Procedure: as §2

Candida glabrata [14] = experiment: MIC/MFC broth microdilution (CLSI); conditions: Nakaseomyces glabratus, CBS138;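 also: broth microdilution following CLSI M27-Ed4, MFC taken as the lowest drug level yielding no growth once MIC wells were subcultured on SDA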
Procedure: as §1

HEK-293T cells = experiment: MTT reduction cytotoxicity assay; assay type: cell-based; conditions: Homo sapiens, HEK-293T, 72 h, MTT, 72 h
Aspergillus fumigatus [15] = experiment: checkerboard drug interaction (FICI, MICc);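 as to all read-outs here: simplified diagonal checkerboard screen pairing antifungals with FPPS inhibitors against Aspergillus fumigatus, with FICI calculated under the Loewe additivity model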; assay type: cell-based; conditions: A. fumigatus; for INH FD (MIC-MICc fold decrease): fold decrease of inhibitor MIC
Procedure: as §2

Cryptococcus neoformans [16] = experiment: checkerboard drug interaction (FICI, MICc);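 as to all read-outs here: antifungal plus FPPS inhibitor pairs tested against Cryptococcus neoformans by simplified diagonal checkerboard screening, FICI computed under the Loewe additivity model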; assay type: cell-based; conditions: C. neoformans; for INH FD (MIC-MICc fold decrease): fold decrease of inhibitor MIC
Procedure: as §2

[17] = test system: Cryptococcus deuterogattii; experiment: MIC/MFC broth microdilution (CLSI); conditions: Cryptococcus deuterogattii;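 also: broth microdilution per CLSI M27-Ed4. MFC is the lowest concentration yielding no colonies when MIC broths are subcultured onto SDA plates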
Procedure: as §1

Saccharomyces cerevisiae [18] = experiment: checkerboard drug interaction (FICI, MICc);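 as to all read-outs here: simplified diagonal checkerboard screen pairing antifungals with FPPS inhibitors, FICI calculated under the Loewe additivity model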; assay type: cell-based; set-up: INH MICc / INH MICc (ITR:INH) / INH MICc (KET:INH) / INH MICc (FLC:INH): unit not given beside the values; conditions: S. cerevisiae; for INH FD (MIC-MICc fold decrease): fold decrease of inhibitor MIC
[19] = Fractional Inhibitory Concentration Index, fluconazole + inhibitor
[20] = Fractional Inhibitory Concentration Index, itraconazole + inhibitor
[21] = Fractional Inhibitory Concentration Index, ketoconazole + inhibitor
[22] = MIC of the inhibitor in combination with fluconazole
[23] = MIC of the inhibitor in combination with itraconazole
[24] = MIC of the inhibitor in combination with ketoconazole
[25] = MIC-MICc fold decrease of fluconazole, negative = increase
[26] = MIC-MICc fold decrease of itraconazole, negative = increase
[27] = MIC-MICc fold decrease of ketoconazole, negative = increase
[28] = MIC-MICc fold decrease of the inhibitor, with fluconazole
[29] = MIC-MICc fold decrease of the inhibitor, with itraconazole
[30] = MIC-MICc fold decrease of the inhibitor, with ketoconazole
[31] = FLC:INH combination, MIC of the inhibitor in combination with FLC
[32] = FLC:INH combination, fold decrease of FLC MIC
[33] = ITR:INH combination, MIC of the inhibitor in combination with ITR
[34] = ITR:INH combination, fold decrease of ITR MIC
[35] = KET:INH combination, MIC of the inhibitor in combination with KET
[36] = KET:INH combination, fold decrease of KET MIC
[37] = FLC:INH combination, MIC of FLC in combination with the inhibitor
[38] = ITR:INH combination, MIC of ITR in combination with the inhibitor
[39] = KET:INH combination, MIC of KET in combination with the inhibitor

CCCCCCCCCCN1CCC[C@H]1C(=O)N[C@@H](CC(=O)OC)C(=O)OC [dmPLA10]
0.28: FICI ([6]; KET:INH combination)
2: FICI (FLC:INH) (Aspergillus flavus [3]; [19]) | INH MICc (ITR:INH) (Aspergillus flavus [3]; [23]) | INH FD (KET:INH) (Aspergillus flavus [3]; [30]) | FLC FD (FLC:INH) (Trichophyton rubrum [4]; [25]) | ITR FD (MIC-MICc fold decrease) (Candida glabrata [7]; [34]) | INH FD (MIC-MICc fold decrease) (Candida glabrata [7]; KET:INH combination) | INH FD (MIC-MICc fold decrease) (Candida albicans [13]; FLC:INH combination) | ITR FD (MIC-MICc fold decrease) (Candida albicans [13]; [34]) | KET FD (MIC-MICc fold decrease) (Candida albicans [13]; [36]) | INH MICc (Aspergillus fumigatus [15]; [33]) | ITR FD (MIC-MICc fold decrease) (Aspergillus fumigatus [15]; [34]) | INH FD (MIC-MICc fold decrease) (Cryptococcus neoformans [16]; FLC:INH combination) | INH FD (MIC-MICc fold decrease) (Cryptococcus neoformans [16]; ITR:INH combination) | INH FD (MIC-MICc fold decrease) (Cryptococcus neoformans [16]; KET:INH combination) | KET MICc (Saccharomyces cerevisiae [18]; [39])
< -4: INH FD (FLC:INH) (Trichophyton rubrum [4]; [28])
4: INH FD (MIC-MICc fold decrease) ([6]; FLC:INH combination) | ITR FD (MIC-MICc fold decrease) [6, 34] | INH FD (MIC-MICc fold decrease) ([6]; ITR:INH combination) | INH FD (MIC-MICc fold decrease) ([6]; KET:INH combination) | INH MICc (Candida glabrata [7]; [33]) | INH FD (MIC-MICc fold decrease) (Candida glabrata [7]; ITR:INH combination) | INH MICc (Candida albicans [13]; [33]) | INH FD (MIC-MICc fold decrease) (Candida albicans [13]; ITR:INH combination) | INH MICc (Candida albicans [13]; [35]) | INH FD (MIC-MICc fold decrease) (Candida albicans [13]; KET:INH combination) | KET FD (MIC-MICc fold decrease) (Aspergillus fumigatus [15]; [36]) | FLC FD (MIC-MICc fold decrease) (Cryptococcus neoformans [16]; [32]) | ITR FD (MIC-MICc fold decrease) (Cryptococcus neoformans [16]; [34]) | KET FD (MIC-MICc fold decrease) (Cryptococcus neoformans [16]; [36])
128 µg/mL: MFC (Aspergillus fumigatus [8]) | MFC [17]
20.7 µg/mL: MIC (eight fungal species [9]; geometric mean across eight species, read-out: GM fungal MIC) | MIC (eight fungal species [9]; read-out: Geometric mean MIC)
0.5: FICI ([6]; ITR:INH combination)
1: FLC FD (FLC:INH) (Aspergillus flavus [3]; [25]) | ITR FD (ITR:INH) (Aspergillus flavus [3]; [26]) | KET FD (KET:INH) (Aspergillus flavus [3]; [27]) | INH FD (FLC:INH) (Aspergillus flavus [3]; [28]) | INH FD (ITR:INH) (Trichophyton rubrum [4]; [29]) | INH FD (KET:INH) (Trichophyton rubrum [4]; [30]) | FLC FD (MIC-MICc fold decrease) (Candida glabrata [7]; [32]) | INH FD (MIC-MICc fold decrease) (Candida glabrata [7]; FLC:INH combination) | KET FD (MIC-MICc fold decrease) (Candida glabrata [7]; [36]) | FLC FD (MIC-MICc fold decrease) (Candida albicans [13]; [32]) | INH FD (MIC-MICc fold decrease) (Aspergillus fumigatus [15]; FLC:INH combination) | KET MICc (Aspergillus fumigatus [15]; [39]) | INH MICc (Saccharomyces cerevisiae [18]; [33]) | ITR FD (MIC-MICc fold decrease) (Saccharomyces cerevisiae [18]; [34]) | INH MICc (Saccharomyces cerevisiae [18]; [35]) | KET FD (MIC-MICc fold decrease) (Saccharomyces cerevisiae [18]; [36])
8 µg/mL: MIC (Saccharomyces cerevisiae [1]) | MIC (Trichophyton rubrum [5])
64: INH MICc (FLC:INH) (Aspergillus flavus [3]; [22]) | INH MICc (FLC:INH) (Trichophyton rubrum [4]; [22])
0.38: FICI ([6]; FLC:INH combination)
64.0 µg/mL: Geometric mean MFC (eight fungal species [9]; across eight species)
0.75: FICI (Candida albicans [13]; ITR:INH combination) | FICI (Candida albicans [13]; KET:INH combination) | FICI (Cryptococcus neoformans [16]; FLC:INH combination) | FICI (Cryptococcus neoformans [16]; ITR:INH combination) | FICI (Cryptococcus neoformans [16]; KET:INH combination)
0.63: FICI (Aspergillus fumigatus [15]; ITR:INH combination)
1.13: FICI (Saccharomyces cerevisiae [18]; ITR:INH combination) | FICI (Saccharomyces cerevisiae [18]; KET:INH combination)
32: INH MICc (KET:INH) (Aspergillus flavus [3]; [24]) | INH FD (ITR:INH) (Aspergillus flavus [3]; [29]) | ITR FD (ITR:INH) (Trichophyton rubrum [4]; [26]) | KET FD (MIC-MICc fold decrease) [6, 36] | INH MICc (Aspergillus fumigatus [15]; [35])
> 128 µg/mL: MFC (Trichophyton rubrum [5])
≥4: FICI (FLC:INH) (Trichophyton rubrum [4]; [19]) | FICI (Candida glabrata [7]; FLC:INH combination) | FICI (Saccharomyces cerevisiae [18]; FLC:INH combination)
3: FICI (Candida glabrata [7]; KET:INH combination)
16: KET FD (KET:INH) (Trichophyton rubrum [4]; [27]) | INH MICc (Candida glabrata [7]; [31]) | INH MICc (Aspergillus fumigatus [15]; [31]) | FLC FD (MIC-MICc fold decrease) (Aspergillus fumigatus [15]; [32]) | INH MICc (Saccharomyces cerevisiae [18]; [31])
1.57 µg/mL: IC50 (HEK-293T cells; HEK-293T cells, read-out: IC50) | IC50 (HEK-293T cells; read-out: HEK IC50)
16 µg/mL: MFC (Saccharomyces cerevisiae [1]) | MIC (Cryptococcus neoformans [12]) | MIC [17]
1.06: FICI (KET:INH) (Trichophyton rubrum [4]; [21]) | FICI (Aspergillus fumigatus [15]; FLC:INH combination)
1.03: FICI (ITR:INH) (Aspergillus flavus [3]; [20]) | FICI (ITR:INH) (Trichophyton rubrum [4]; [20])
64 µg/mL: MFC (eight fungal species [9]; across eight species, read-out: Geometric mean MFC) | MFC (Aspergillus flavus [10]) | MIC (Aspergillus flavus [10]) | MFC (Cryptococcus neoformans [12])
1.5: FICI (KET:INH) (Aspergillus flavus [3]; [21]) | FICI (Candida glabrata [7]; ITR:INH combination) | FICI (Candida albicans [13]; FLC:INH combination)
8: INH MICc (ITR:INH) (Trichophyton rubrum [4]; [23]) | INH MICc (KET:INH) (Trichophyton rubrum [4]; [24]) | INH MICc [6, 31] | FLC FD (MIC-MICc fold decrease) [6, 32] | INH MICc [6, 33] | INH MICc [6, 35] | INH MICc (Candida glabrata [7]; [35]) | GM fungal MICc (eight fungal species [11]) | INH MICc (Candida albicans [13]; [31]) | FLC MICc (Aspergillus fumigatus [15]; [37]) | INH FD (MIC-MICc fold decrease) (Aspergillus fumigatus [15]; ITR:INH combination) | INH MICc (Cryptococcus neoformans [16]; [31]) | INH MICc (Cryptococcus neoformans [16]; [33]) | INH MICc (Cryptococcus neoformans [16]; [35]) | FLC MICc (Saccharomyces cerevisiae [18]; [37]) | INH FD (MIC-MICc fold decrease) (Saccharomyces cerevisiae [18]; ITR:INH combination) | INH FD (MIC-MICc fold decrease) (Saccharomyces cerevisiae [18]; KET:INH combination)
0.25: ITR MICc (Saccharomyces cerevisiae [18]; [38])
-2: INH FD (MIC-MICc fold decrease) (Aspergillus fumigatus [15]; KET:INH combination) | FLC FD (MIC-MICc fold decrease) (Saccharomyces cerevisiae [18]; [32]) | INH FD (MIC-MICc fold decrease) (Saccharomyces cerevisiae [18]; FLC:INH combination)
0.063: ITR MICc (Aspergillus fumigatus [15]; [38])
2.25: FICI (Aspergillus fumigatus [15]; KET:INH combination)
32 µg/mL: MFC (Candida albicans [2]) | MIC (Candida albicans [2]) | MIC (Aspergillus fumigatus [8]) | MFC (Candida glabrata [14]) | MIC (Candida glabrata [14])
